Earlier results in patent US20060003361A1, “SMVT transporters expressed in cancer cells” (Xenoport, Inc., priority 2004, published 2006).

Molecular target: T1, SMVT (Homo sapiens, UniProt Q9Y289)
T1 sequence (Q9Y289 1-635): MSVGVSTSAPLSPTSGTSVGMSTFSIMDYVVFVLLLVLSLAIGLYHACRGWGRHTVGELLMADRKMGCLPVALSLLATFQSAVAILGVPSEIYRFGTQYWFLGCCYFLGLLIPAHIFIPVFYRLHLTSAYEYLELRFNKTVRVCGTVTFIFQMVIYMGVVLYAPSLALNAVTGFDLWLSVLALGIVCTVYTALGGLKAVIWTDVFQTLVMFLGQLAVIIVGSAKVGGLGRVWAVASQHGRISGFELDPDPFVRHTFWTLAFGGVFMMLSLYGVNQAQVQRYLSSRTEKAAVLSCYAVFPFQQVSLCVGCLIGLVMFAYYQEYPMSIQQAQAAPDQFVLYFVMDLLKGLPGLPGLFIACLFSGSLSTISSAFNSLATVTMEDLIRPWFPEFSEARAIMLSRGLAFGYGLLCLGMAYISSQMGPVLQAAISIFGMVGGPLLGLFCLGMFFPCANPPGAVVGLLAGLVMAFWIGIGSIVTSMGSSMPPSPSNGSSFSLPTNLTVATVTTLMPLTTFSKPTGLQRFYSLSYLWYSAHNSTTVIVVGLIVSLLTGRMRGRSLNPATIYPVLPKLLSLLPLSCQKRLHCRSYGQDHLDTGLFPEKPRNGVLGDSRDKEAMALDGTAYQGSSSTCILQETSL

Row | Reported Affinity for SMVT [mM] | SMILES
1 | 0.04 | O=C(O)CCCc1ccccc1 [4-phenyl-butyric acid]
2 | 0.03 | CC(C)(CO)[C@@H](O)C(=O)NCCC(=O)O [Pantothenic acid]

Row | SMILES | Reported Affinity for SMVT [mM]
3 | O=C(O)CCCC[C@@H]1SC[C@@H]2NC(=O)N[C@@H]21 [Biotin] | 0.01
